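These data come from cells grown in 96-well plates and exposed to compound for 48 hours at five concentrations. TGI denotes the concentration required for complete inhibition of growth.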
What was measured:
Assay in all cases: inhibition of tumour cell growth, NCI panel, 48 h
SF-539 CNS = tested on: SF-539 CNS
EKVX NSCLC = tested on: EKVX NSCLC
NCI-H522 lung = tested on: NCI-H522 lung
SNB-75 CNS = tested on: SNB-75 CNS
HCT-116 colon = tested on: HCT-116 colon
KM12 colon = tested on: KM12 colon
OVCAR-4 ovarian = tested on: OVCAR-4 ovarian
MDA-N = tested on: MDA-N
MDA-MB-435 = tested on: MDA-MB-435
K-562 leukemia = tested on: K-562 leukemia
MOLT-4 leukemia = tested on: MOLT-4 leukemia
HT29 colon = tested on: HT29 colon
SNB-19 CNS = tested on: SNB-19 CNS
DU-145 prostate = tested on: DU-145 prostate
LOX IMVI melanoma = tested on: LOX IMVI melanoma
RXF 393 renal = tested on: RXF 393 renal
A498 renal = tested on: A498 renal
MCF7 breast = tested on: MCF7 breast
NCI/ADR-RES ovarian = tested on: NCI/ADR-RES ovarian
NCI-H23 lung = tested on: NCI-H23 lung

SMILES | TGI (SF-539 CNS) [µM] | TGI (EKVX NSCLC) [µM] | TGI (NCI-H522 lung) [µM] | TGI (SNB-75 CNS) [µM] | TGI (HCT-116 colon) [µM] | TGI (KM12 colon) [µM] | TGI (OVCAR-4 ovarian) [µM] | TGI (MDA-N) [µM] | TGI (MDA-MB-435) [µM] | TGI (K-562 leukemia) [µM] | TGI (MOLT-4 leukemia) [µM] | TGI (HT29 colon) [µM] | TGI (SNB-19 CNS) [µM] | TGI (DU-145 prostate) [µM] | TGI (LOX IMVI melanoma) [µM] | TGI (RXF 393 renal) [µM] | TGI (A498 renal) [µM] | TGI (MCF7 breast) [µM] | TGI (NCI/ADR-RES ovarian) [µM] | TGI (NCI-H23 lung) [µM]
COc1ccc(-c2c(-c3ccccc3)c(C)nc3[nH]c(=S)[nH]c(=S)c23)cc1OC | 50.8 | > 100 | 85.8 | > 100 | 64.9 | 42.7 | > 100 | > 100 | 74.1 | > 100 | 63.6 | > 100 | > 100 | > 100 | > 100 | > 100 | > 100 | > 100 | > 100 | > 100
COC(=O)[C@@H](NC(=O)[C@H](N)Cc1ccc(N(CCCl)CCCl)cc1)C(C)C | 67.6 | > 90.8 | 33.1 | 66.6 | 44.1 | 66.4 | 36.7 | > 68 | 47.5 | 40.3 | 0.234 | > 100 | > 100 | 59.1 | 37.9 | 55.5 | 48.5 | > 100 | 40.8 | 16.8
Cc1nc2c(O)c3c(c(O)c2nc1C)C1C=CC3CC1 | 22 | 24.6 | 37.5 | > 92.6 | 17.3 | 31.5 | 6.22 | 7.37 | 6.2 | 4.31 | 2.9 | 55.9 | > 100 | > 100 | 9.95 | 22.6 | 81.5 | 25.4 | 18.5 | 26.5
CCOC(=O)c1c(N2CCOCC2)ncn(-c2cccc(Cl)c2)c1=O | > 100 | > 100 | > 100 | > 100 | > 100 | > 100 | > 100 | > 100 | > 100 | > 100 | > 100 | > 100 | > 100 | > 100 | > 100 | > 100 | > 100 | > 100 | > 100 | > 100
COc1ccc(CCc2ccc3c(c2)OCO3)cc1 | > 100 | > 100 | > 100 | > 100 | > 100 | > 100 | > 100 | > 100 | 42.6 | > 100 | > 100 | > 100 | > 100 | > 100 | > 100 | 86 | > 100 | > 100 | > 100 | > 100
Nc1n[nH]c2c(C(=O)Nc3ccc(Cl)cc3)c(N)n(N)c(=O)c12 | > 100 | > 100 | > 100 | > 100 | > 100 | > 100 | > 100 | > 100 | > 100 | > 100 | > 100 | > 100 | > 100 | > 100 | > 100 | > 100 | > 100 | > 100 | > 100 | > 100
C=CCc1oc(C)nc1CCCC | > 100 | > 100 | > 100 | > 100 | > 100 | > 100 | > 100 | > 100 | > 100 | > 100 | > 100 | > 100 | > 100 | > 100 | > 100 | > 100 | > 100 | > 100 | > 100 | > 100
CC(=Nc1cccc(Cl)c1)c1ccncc1 | > 100 | > 100 | > 100 | > 100 | > 100 | > 100 | > 100 | > 100 | > 100 | > 100 | > 100 | > 100 | > 100 | > 100 | > 100 | > 100 | > 100 | > 100 | > 100 | > 100
COc1cccc(/C=C2\SC(=S)N(/C=C3\C(=O)Oc4ccccc4C3=O)C2=O)c1O | 83.2 | > 100 | > 100 | > 100 | > 100 | > 100 | > 100 | > 100 | 75.6 | > 100 | > 100 | > 100 | > 100 | > 100 | > 100 | > 100 | 48 | > 100 | > 100 | > 100
COc1ccc2c(C)cc(N/N=C/c3ccc(C)s3)nc2c1 | 36.5 | 32.2 | > 100 | > 83.9 | > 46.4 | > 57 | > 63.9 | > 62.7 | > 52.4 | > 100 | 36.9 | 16.7 | > 67.2 | 23.9 | 11.1 | 33.8 | 52.9 | 25.3 | 73.5 | > 48.8
COc1ccc2cc(CN3CCC(C4CCN(Cc5ccc6cc(OC)ccc6c5)CC4)CC3)ccc2c1 | > 100 | 29.8 | 6.56 | 11 | 10.6 | 6.31 | 18.2 | 4.06 | 3.58 | 2.12 | 5.11 | 6.64 | 16.6 | 41.6 | 5.66 | 11.8 | 22.2 | > 100 | 25.9 | 35.9
CCO[C@@]12CCC3CC4CC[C@@](OCC)(O1)C4C32 (stereo not given in full) | > 100 | > 100 | > 100 | > 100 | > 100 | > 100 | > 100 | > 100 | > 100 | > 100 | > 100 | > 100 | > 100 | > 100 | > 100 | > 100 | > 100 | > 100 | > 100 | > 100

Source: PubChem BioAssay (NCI)
